Results on nine molecules are retold here after PubChem BioAssay AID1918939 (Molecular Pharmacology Branch, DTP, NCI, 2023).

The test system of the assay is 653999-131-R-J2-PDC complex spheroid viability. In words: Anticancer human tumor 653999-131-R-J2-PDC patient-derived lung adenocarcinoma cell line growth inhibition. To be noted: for viability, T/C: stronger effect = lower value; for IC50: curve of compound. The source says:
Multicellular complex tumor spheroid response to LSD1 Inhibitor Iadademstat in combination with a variety of drugs and investigational agents in selected tumor cell lines
The current study was undertaken to assess response to LSD1 inhibitors in combination with standard-of-care drugs and investigational agents in solid tumor complex spheroid models as well as in the K-562 leukemia. Complex spheroids include a stromal component modeled by human endothelial cells (HUVEC) and fibroblasts modeled by human mesenchymal stem cells (MSCs). The concentration ranges selected for each drug and investigational agent were based upon clinically achievable concentrations if the clinical Cmax of the agent was known.
Compounds. The drugs and investigational agents used in this study are listed on Table 1. All of the agents used, including staurosporine (NSC755774) and gemcitabine (NSC613327), were obtained from the Developmental Therapeutics Program, NCI. FDA-approved anticancer drugs are available from the NCI at http://dtp.nci.nih.gov/branches/dscb/oncology_drugset_explanation.html. Drugs and investigational agents were >95% pure by proton nuclear magnetic resonance (NMR) and liquid chromatography/mass spectrometry (LC/MS). Stock solutions were prepared at 400x in DMSO, stored at -70 degrees C, and diluted in fresh medium prior to their use. The final concentration of DMSO in cell culture wells never exceeded 0.25% (v/v). The FDA-approved anticancer drug set is available from the Developmental Therapeutics Program at https://dtp.cancer.gov/organization/dscb/obtaining/available_plates.htm. All drugs and investigational agents were tested over a range starting from a high concentration at or near the clinical Cmax and decreasing in half-log increments. If the clinical Cmax for an agent had not been determined, the highest concentration tested was 10 microM.
Cell Lines. The patient-derived cancer cell (PDC) lines: 292921-168-R-J2-PDC, K24384-001-R-PDC, and 521955-158-R2-J5-PDC pancreatic carcinomas, 556581-035-R-J1 ovarian carcinoma, 324938-238-R-J1-PDC, 855422-203-R-J1-PDC and 883617-216-R-J1-PDC urothelial bladder carcinomas, 743489-274-T-PDC renal cell carcinoma, 138582-R-J1 Merkel cell tumor, K60290-347-R-J1 and K57222-313-R-J1-PDC glioblastomas, 653999-131-R-J2-PDC, LG0703-F948-PDC, and 349418-098-R-PDC non-small cell lung carcinomas, 885512-296-R-J2-PDC, 171881-019-R-J1-PDC breast carcinomas and 186277-243-T-J2-PDC and 233499-124-R-J2-PDC colon carcinomas were obtained from the NCI Patient-Derived Models Repository (PDMR, https://pdmr.cancer.gov). The established cell lines NCI/ADR-RES (RRID:CVCL_14520 and OVCAR-5 (RRID:CVCL_1628) ovarian carcinomas, 786-O (RRID:CVCL_1051) and A498 (RRID:CVCL_A498) renal cell carcinoma, NCI-H211 (ATCC, cat. CRL-5824; RRID:CVCL_1529), NCI-H196 (ATCC, cat. CRL-5823, RRID:CVCL_1509), SW 1271 (ATCC, cat. CRL-2177, RRID:CVCL_1716) and NCI-H1876 (ATCC, cat. CRL-5902, RRID:CVCL_1503) small cell lung carcinomas, MDA-MB-231 (RRID:CVCL_0062) and MDA-MB-468 (RRID:CVCL_0419)breast carcinomas (10-12). Pooled donor human umbilical vein endothelial cells (HUVEC, Lonza, cat. CC-2519) and human mesenchymal stem cells (hMSC, Lonza, cat. PT-2501) were purchased from Lonza (Walkersville, MD).
Cell Culture. All cells were maintained in an incubator at 37 degrees C and 5% CO2 with 95% humidity. The PDC lines were cultured according to standard operating procedures established by the NCI PDMR (https://pdmr.cancer.gov). Briefly all PDCs were thawed and cultured in Matrigel-coated flasks prepared with a working solution of 1X Ham's F-12 nutrient mix, without supplementation (Invitrogen, Waltham, MA, cat. 11765054), 100 U/mL penicillin-streptomycin (Invitrogen, cat. 15140122), and 2.5% Matrigel (Corning Inc., Corning, NY, cat. 354248) for the first three passages. […]

Several values for one entry are separate records, joined by “and”; a condition that tells them apart may be missing. Equal entries are not always repeated.
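Also: spheroids exposed to agents for seven days before readout.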

As to `Cn1ncnc1C1c2n[nH]c(=O)c3cc(F)cc(c23)NC1c1ccc(F)cc1` (stereo unspecified), the IC50 (as a rule, the concentration that inhibits the measured activity by half) was > 100 nM. Also, the viability, T/C (as a rule, the ratio of treated to control) (compound 0.000316 µM) is 97.3% and 103%. Under “compound 0.001 µM”, the viability, T/C is 92.2% and 108%. Moreover, the viability, T/C (compound 0.00316 µM) was 96% and 98.3%. The viability, T/C (compound 0.01 µM) is 99.2% and 101%. Besides, where the note is “compound 0.0316 µM”, the viability, T/C is 89.6% and 93.2%. Further, where the note is “compound 0.1 µM”, the viability, T/C is 94% and 91.3%.
For `NS(=O)(=O)OCC1CC(n2ccc3c(NC4CCc5ccccc54)ncnc32)CC1O` (stereo unspecified), the IC50 is > 3000 nM. The viability, T/C (compound 0.00949 µM) was 115% and 114%. Further, the viability, T/C (compound 0.03 µM) is 98.1% and 121%. The viability, T/C (compound 0.0949 µM) is 91.9% and 121%. The viability, T/C (compound 0.3 µM) is 99.7% and 70.9%. Also, the viability, T/C (compound 0.949 µM) is 54.7% and 62.8%. The viability, T/C (compound 3 µM) was 55.3% and 60%.
`Nc1ccccc1NC(=O)c1ccc(CNC(=O)OCc2cccnc2)cc1`: the IC50 was 402 nM and 414 nM. In addition, the viability, T/C (compound 0.00949 µM) was 100% and 112%. Besides, where the note is “compound 0.03 µM”, the viability, T/C is 73.8% and 105%. Besides, the viability, T/C (compound 0.0949 µM) is 75% and 76.2%. Further, the viability, T/C (compound 0.3 µM) was 56.3% and 69.2%. For the same molecule, the viability, T/C (compound 0.949 µM) was 38.6% and 20.9%. Moreover, where the note is “compound 3 µM”, the viability, T/C is 11.8% and 1.21%.
Regarding `Nc1ccn(C2OC(CO)C(O)C2(F)F)c(=O)n1` (stereo unspecified), the viability, T/C reads like this: (compound 0.000949 µM) 64.7% and 96.4%; (compound 0.003 µM) 56.8% and 94.6%; (compound 0.00949 µM) 49% and 73.2%; (compound 0.03 µM) 38.4% and 57.3%; (compound 0.0949 µM) 37.5% and 50.2%; (compound 0.3 µM) 34.7% and 50.1%.
Turning to `Nc1ncn(C2CC(O)C(CO)O2)c(=O)n1` (stereo unspecified), the IC50 is > 1000 nM. In addition, the viability, T/C (compound 0.00316 µM) was 89% and 109%. The viability, T/C (compound 0.01 µM) is 105% and 103%. The viability, T/C (compound 0.0316 µM) is 83.9% and 95.3%. For the same molecule, where the note is “compound 0.1 µM”, the viability, T/C was 78.7% and 96.2%. For the same molecule, where the note is “compound 0.316 µM”, the viability, T/C was 80.5% and 91.1%. In addition, the viability, T/C (compound 1 µM) is 79.3% and 85.2%.
As for `Nc1ncn(C2CC(O)C(CO)S2)c(=O)n1` (stereo unspecified), the IC50 was > 300 nM. Under “compound 0.000949 µM”, the viability, T/C was 96% and 102%. Where the note is “compound 0.003 µM”, the viability, T/C was 96.2% and 104%. Further, the viability, T/C (compound 0.00949 µM) was 103% and 100%. In addition, the viability, T/C (compound 0.03 µM) is 76.5% and 87.5%. Also, the viability, T/C (compound 0.0949 µM) is 76.6% and 87.2%. Under “compound 0.3 µM”, the viability, T/C is 62.8% and 79.2%.
With `O=C(C=Cc1cccc(S(=O)(=O)Nc2ccccc2)c1)NO`, the IC50 was 401 nM and > 3000 nM. Besides, the viability, T/C (compound 0.00949 µM) was 87.5% and 110%. In addition, where the note is “compound 0.03 µM”, the viability, T/C was 96.6% and 99.4%. Besides, the viability, T/C (compound 0.0949 µM) is 75.9% and 90.7%. Also, for the setting “compound 0.3 µM”, the viability, T/C is 54.9%. The viability, T/C (compound 0.949 µM) was 30.9% and 11.4%.
With `O=C(C=Cn1cnc(-c2cc(C(F)(F)F)cc(C(F)(F)F)c2)n1)NNc1cnccn1`, the IC50 is 16.9 nM and 76.1 nM. The viability, T/C (compound 0.00316 µM) was 63.9% and 63.1%. Besides, where the note is “compound 0.01 µM”, the viability, T/C was 51.8% and 58%. For the same molecule, under “compound 0.0316 µM”, the viability, T/C was 43.4% and 58.5%. In addition, the viability, T/C (compound 0.1 µM) was 40.6% and 47.5%. Further, under “compound 0.316 µM”, the viability, T/C was 31.4% and 38.6%. Also, under “compound 1 µM”, the viability, T/C was 21.8% and 36.8%.
On to `O=C(c1cc(Cc2n[nH]c(=O)c3ccccc23)ccc1F)N1CCN(C(=O)C2CC2)CC1`, for which the IC50 was > 10000 nM. In addition, the viability, T/C (compound 0.0316 µM) is 105% and 108%. For the same molecule, the viability, T/C (compound 0.1 µM) is 103% and 108%. Besides, under “compound 0.316 µM”, the viability, T/C is 94.7% and 105%. Further, under “compound 1 µM”, the viability, T/C is 92.7% and 102%. Further, the viability, T/C (compound 3.16 µM) is 79% and 91.8%. Further, the viability, T/C (compound 10 µM) is 68.4% and 69.3%.
